Values of other authors as cited in patent US12016331B2, “Microemulsions and uses thereof as delivery systems” (ARCHER DANIELS MIDLAND COMPANY, priority 2012, dated 2024).

Row | SMILES | LD 50 value, dermal toxicity
1 | CC(O)C(=O)O (centres unmarked) [lactic acid] | greater than 3000 mg/Kg
2 | CCC(=O)O [propionic acid] | 500 mg/kg
